Data: US20100092402A1, “TREATMENT OF RESPIRATORY DISEASE” (Mucokinetica Ltd., priority 2007, published 2010)
Where two headings read alike, the source gives them in different places. Values belong to the molecule of their own block, whether it stands above or below them.

Key:
[1] = target: T1, epithelial amiloride-sensitive sodium channel (ENaC) (Homo sapiens, UniProt P37088+P51168+P51170); assay type: cell-based; settings: 1 μM or 100 μM, 90 min
T1 sequence (P37088 1-669): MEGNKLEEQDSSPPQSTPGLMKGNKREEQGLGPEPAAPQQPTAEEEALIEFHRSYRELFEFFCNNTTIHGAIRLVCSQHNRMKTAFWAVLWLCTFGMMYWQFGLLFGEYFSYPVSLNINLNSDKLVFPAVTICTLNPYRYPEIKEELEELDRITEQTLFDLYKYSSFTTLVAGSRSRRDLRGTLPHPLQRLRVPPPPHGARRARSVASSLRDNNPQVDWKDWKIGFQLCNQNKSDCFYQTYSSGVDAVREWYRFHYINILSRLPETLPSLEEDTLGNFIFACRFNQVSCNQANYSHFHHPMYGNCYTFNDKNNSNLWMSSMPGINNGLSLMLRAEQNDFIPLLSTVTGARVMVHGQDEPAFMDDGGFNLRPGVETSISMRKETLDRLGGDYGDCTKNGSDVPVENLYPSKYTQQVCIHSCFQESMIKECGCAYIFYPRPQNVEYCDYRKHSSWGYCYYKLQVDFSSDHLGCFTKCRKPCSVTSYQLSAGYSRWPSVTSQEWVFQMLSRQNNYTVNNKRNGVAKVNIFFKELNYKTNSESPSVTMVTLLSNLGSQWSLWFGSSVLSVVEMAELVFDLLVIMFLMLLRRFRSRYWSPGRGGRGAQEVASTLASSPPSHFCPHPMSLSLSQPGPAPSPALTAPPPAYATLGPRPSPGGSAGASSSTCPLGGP
T1 sequence (P51168 1-640): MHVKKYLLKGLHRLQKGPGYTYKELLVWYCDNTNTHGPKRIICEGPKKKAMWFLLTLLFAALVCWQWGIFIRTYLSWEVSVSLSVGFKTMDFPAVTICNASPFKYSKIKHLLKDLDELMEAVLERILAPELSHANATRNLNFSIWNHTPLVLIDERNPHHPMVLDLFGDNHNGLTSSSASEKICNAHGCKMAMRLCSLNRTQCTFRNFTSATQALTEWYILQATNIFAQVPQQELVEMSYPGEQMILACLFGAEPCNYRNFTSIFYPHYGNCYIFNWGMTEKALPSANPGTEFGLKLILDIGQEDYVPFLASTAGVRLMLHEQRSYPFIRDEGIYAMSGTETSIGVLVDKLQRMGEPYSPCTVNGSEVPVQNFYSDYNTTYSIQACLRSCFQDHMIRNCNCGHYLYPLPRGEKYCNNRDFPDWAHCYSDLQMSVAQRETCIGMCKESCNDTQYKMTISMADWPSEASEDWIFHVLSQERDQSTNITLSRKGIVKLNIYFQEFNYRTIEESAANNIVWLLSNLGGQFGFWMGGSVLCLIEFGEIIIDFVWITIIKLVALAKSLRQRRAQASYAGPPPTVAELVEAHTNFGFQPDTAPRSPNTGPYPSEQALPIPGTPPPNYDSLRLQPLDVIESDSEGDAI
T1 sequence (P51170 1-649): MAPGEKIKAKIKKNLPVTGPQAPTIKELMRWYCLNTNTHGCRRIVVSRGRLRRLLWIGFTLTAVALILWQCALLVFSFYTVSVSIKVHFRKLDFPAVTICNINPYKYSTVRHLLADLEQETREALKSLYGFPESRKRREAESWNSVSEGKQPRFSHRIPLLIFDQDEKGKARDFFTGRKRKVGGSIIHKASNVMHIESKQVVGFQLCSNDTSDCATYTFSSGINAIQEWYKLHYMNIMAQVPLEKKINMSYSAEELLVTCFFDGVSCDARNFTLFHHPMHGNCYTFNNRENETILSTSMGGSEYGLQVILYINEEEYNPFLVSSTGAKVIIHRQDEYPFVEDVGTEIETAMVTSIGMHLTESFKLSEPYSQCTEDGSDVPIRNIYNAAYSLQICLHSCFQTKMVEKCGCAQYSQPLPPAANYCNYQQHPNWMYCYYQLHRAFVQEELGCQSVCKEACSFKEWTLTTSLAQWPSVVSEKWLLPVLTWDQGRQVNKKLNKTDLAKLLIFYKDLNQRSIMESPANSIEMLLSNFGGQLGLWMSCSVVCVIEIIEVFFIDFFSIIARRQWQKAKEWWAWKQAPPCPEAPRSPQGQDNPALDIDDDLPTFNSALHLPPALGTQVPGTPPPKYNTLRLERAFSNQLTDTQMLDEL
Description: (§1) Human bronchial epithelial (HBE) cells were purchased from Cambrex Bioscience Ltd, UK., and were stored frozen in liquid nitrogen until required for use.
(§2) HBE cells were amplified by growing in secondary culture according to the suppliers' instructions. Cells were seeded at densities of between 3,000 to 4,000/cm^2 in plastic T-25 culture flasks in bronchial epithelial cell growth medium (BEGM) prepared from bronchial epithelial basal medium (BEBM, Cambrex, UK) supplemented with bovine pituitary extract, hydrocortisone, human epidermal growth factor, epinephrine, transferrin, insulin, retinoic acid, triiodothyronine, gentamicin, and amphotericin B. Cultures were maintained at 37° C. in 5% CO2 in a humidified incubator. Medium was changed every 1 to 3 days until cells were approximately 90% confluent. Cells were then passaged with trypsin EDTA according to the suppliers' instructions, and either used for further cell cultures, or cryopreserved in liquid nitrogen in BEGM containing 10% foetal bovine serum and 10% DMSO.
(§3) HBE cells were prepared for electrophysiology studies by growing as tertiary cultures on Snapwell (Corning) 0.4μ clear polyester membrane inserts 1.2 cm^2 coated with collagen IV (Sigma). Cells were seeded at approximately 10^5/cm^2 in 0.5 ml 1:1 DMEM (Cambrex, UK) BEGM containing bovine pituitary extract (50 μg/ml), hydrocortisone (0.5 μg/ml), human epidermal growth factor (0.5 ng/ml), epinephrine (0.5 μg/ml), transferrin (10 μg/ml), insulin (5 μg/ml), retinoic acid (50 nM), and gentamicin (50 μg/ml) (Danahay medium; Danahay et al. 2002). Snapwell inserts were mounted in 6-well plates with 3 ml Danahay medium in the wells, and grown at 37° C. in 5% CO2 in a humidified incubator. Medium was changed every 1 to 3 days. An apical air-liquid interface (ALI) was established as the cells achieved confluence (3 to 6 days) by removal of medium from the centre of the insert. Confluent differentiated bronchial epithelial cells were used for electrophysiology studies at between 15 and 29 days after establishing ALI.
(§4) Differentiated HBE cells grown to confluence at an air-liquid interface for 15 to 29 days were used to study substances for ability to achieve long duration down regulation of the epithelial amiloride-sensitive sodium channel (ENaC).
(§5) Step 1: Treatment with substance. For each group of cells treated with a substance, 30 μl of 100 times final concentration of substance was added to the 3 ml basolateral culture medium, mixed and 150 μl of the resultant basolateral fluid was transferred to the apical surface for 5 min. For non-treatment control groups of basolateral fluid with no added substance was transferred to the apical surface. After 5 min. equilibration the excess apical fluid was then transferred back to the basolateral side of the culture well.
(§6) Step 2: Variable period of incubation with the substance. Dependent on the individual experiment the cells were returned to the 37° C. incubator for periods of 0 min. to 120 min.
(§7) Step 3: Period of substance washout with fresh culture medium. For experiments to study the duration of a substance response the HBE cells on Snapwell inserts were washed with fresh culture medium (no added substance) at 37° C. and placed in fresh 6-well plates containing 3 ml fresh culture medium (no added substance) on the basolateral side. […] Step 3 was omitted in studies where the duration of the substance response was not investigated.
(§8) Step 4: Wash with Krebs-Ringer buffer and assembly in Ussing chambers. The Snapwell insert cultures of HBE cells were removed from the 6-well plates and washed with excess Krebs-Ringer buffer (120 mM-NaCl, 25 mM-NaHCO3, 3.3 mM-KH2PO4, 0.8 mM-K2HPO4, 1.2 mM-CaCl2, 1.2 mM-MgCl2, 10 mM-glucose) pH7.4 at 37° C. The inserts were then mounted in Ussing chambers (Snapwell diffusion chambers, Costar UK Ltd.). Each side of the chamber was filled with 5 ml Krebs-Ringer buffer and gassed continuously with 95% O2/5% CO2 at 37° C. […]

[2] = tested on: cortical collecting duct of the rabbit kidney; settings: perfused; Muto et al. 1994; cited from earlier work
[3] = target: T2, epithelial amiloride-sensitive sodium channel (ENaC) (Homo sapiens, UniProt P37088+P51168+P51170); assay type: cell-based
T2 construct: Differentiated HBE cells grown to confluence at an air-liquid interface for 15 to 29 days were used; host or cells: primary human bronchial epithelial (HBE) cells, differentiated at air-liquid interface
Description: as §1, §2, §3, §4, §5, §6, §7, §8

[4] = tested on: amiloride-sensitive (sodium-dependent) component of nasal PD; test: Nasal PD measurement during perfusion of human nasal epithelium; assay type: in vivo; settings: perfusion with 10^−5 M-amiloride
Description: The method of measurement of nasal PD was an adaptation of that described by Standaert et al. (2004).
Ringer/HEPES buffer solution was prepared containing 148 mM-NaCl, 4.05 mM-KCl, 1.2 mM-CaCl2, 1.2 mM-MgCl2, 2.4 mM-K2HPO4, 0.4 mM-KH2PO4, 10 mM-HEPES, and adjusted to pH 7.4. Low chloride Ringer/HEPES buffer solution was prepared by replacing NaCl with 148 mM-Na gluconate in the Ringer solution components.
Agar electrodes were prepared with 3.7% agarose dissolved in Ringer/HEPES buffer pH 7.4. The reference electrode was placed and taped in contact with a small area on the forearm where the epidermis had been removed by gentle abrasion. A dual lumen nasal recording electrode was prepared using a lm length of soft plastic tubing 2.4 mm diameter, into which 1 mm diameter polythene tubing was inserted through the wall and along the lumen for 15 cm from one end. The 2.4 mm diameter tubing was filled with 3.7% agarose dissolved in Ringer/HEPES buffer pH 7.4. The 1 mm diameter tubing was used for perfusion of buffer solutions and drugs to the nasal epithelium. The ends of the agar electrodes were each placed in contact with a calomel half-cell in 3 M-KCl solution. Voltages were measured by connecting the calomel electrodes to a high impedance voltmeter (Keithley 617 programmable electrometer). Output from the voltmeter was recorded by connection to a Biopac MP100 data aquisition unit and PC running Acqknowledge III data acquisition software.
Nasal PD was recorded via the recording electrode placed in contact with the nasal epithelium approximately 4 cm inside the nostril. The nasal epithelium was perfused according to the following schedule and nasal PD was recorded continuously.
1. Ringer/HEPES buffer was perfused at 0.5 ml/min for 5 min, and starting baseline PD was recorded.
2. Perfusion was then switched to low chloride Ringer/HEPES buffer pH 7.4 for 30 min during which time initial hyperpolarisation of the epithelium occurred.
3. The nasal epithelium was then perfused with 10^−5 M-amiloride in low chloride Ringer/HEPES buffer pH 7.4 for 10 min. Measurement of the amiloride-sensitive (sodium-dependent) component of nasal PD was then made by measuring the difference between the average PD recorded over the 2 min before perfusion with amiloride and the average PD recorded in the period 4 to 6 min after perfusion with amiloride.
4. Amiloride was washed away from the nasal epithelium by perfusion with low chloride Ringer/HEPES buffer pH 7.4 for 30 min.
5. Steps 3 and 4 were then repeated twice more.
6. The nasal epithelium was then perfused with 3 μM 6-amidino-2-napthyl 4-guanidinobenzoate in low chloride Ringer/HEPES buffer pH 7.4 for 60 min.
7. Steps 3 and 4 were then repeated a further twice, followed by either a period of administration of amiloride (3 experiments), or a final repetition of both steps 3 and 4 (1 experiment).
Over the 5 h time course of each experiment nasal PD drifted and oscillated. […] Changes in nasal PD caused by perfusion of amiloride were calculated as the difference between the mean PD recorded in the 2 min period before perfusion with amiloride and the mean PD recorded in the plateau period 4 to 6 min after start of perfusion with amiloride. Within each experiment the change in nasal PD at each period of application of amiloride was expressed as a percentage of the maximum change observed in the experiment.

nasal epithelium = test: Mucus host-defence responses during nasal perfusion; assay type: in vivo, human; settings: perfusion with 10^−5 M in low chloride Ringer/HEPES buffer
Text: Perfusion of the nasal epithelium with low chloride Ringer/HEPES buffer imposes a chemical gradient for chloride secretion, and therefore also provides a drive for fluid secretion.
Mucus host-defence episodes were scored 1 to 3 on the basis of the number of features and the magnitude of the responses observed. FIG. 10 reports the score of the episodes recorded, and indicates the time of their occurrence in the perfusion protocol.

ENaC = target: T3, ENaC (Homo sapiens, UniProt P37088+P51168+P51170); settings: same range as 50% to 70% of amiloride inhibition; Bridges et al. 2001; cited from earlier work
T3 construct: Treatment of airway epithelial cells with BAY 39-9437 results in reduction of ENaC activity; host or cells: airway epithelial cells (Bridges et al 2001)
T3 sequence (P37088 1-669): T1 sequence (P37088 1-669)
T3 sequence (P51168 1-640): T1 sequence (P51168 1-640)
T3 sequence (P51170 1-649): T1 sequence (P51170 1-649)

amiloride ΔIsc compared to control ([1]; HBE 34 & 35 d, 28 & 29 d ALI (FIG. 8B)): not significantly different
Molecule: N=C(N)c1ccc2cc(O)ccc2c1 [AN, 6-amidino-2-naphthol]
minimum effective concentration [2]: 10^−4 M

Molecule: N=C(N)NC(=O)c1nc(Cl)c(N)nc1N [amiloride]
ΔIsc (amiloride addition) ([3]; 10 μM amiloride apical, HBE cells 24 d in culture, 21 d ALI, FIG. 1): 9.2 μAmp
time for short circuit current to fall to new plateau after application of amiloride ([3]; 10 μM-amiloride, apical surface): ≤ 2 min
time at which partial depolarisation of nasal epithelium was observable [4]: ≤ 2 min
mucus host-defence responses (nasal epithelium): stimulated episodes of mucus host-defence responses

amiloride ΔIsc compared to control ([1]; HBE 22 d, 17 d ALI (FIG. 8A)): not significantly different
Molecule: N=C(N)Nc1ccc(C(=O)O)cc1 [pGBA, p-guanidinobenzoic acid]
minimum effective concentration [2]: 10^−5 M

Molecule: aprotinin
efficacy compared with high dose amiloride (ENaC): same range
